This experiment has as its target T1, LPA1 (Homo sapiens, UniProt Q92633).
T1 construct: ProLink (β-galactosidase enzyme-donor fragment); host or cells: CHO-K1 (PathHunter EDG2 β-Arrestin cell line)
Kind of experiment: LPA1 calcium flux assay (LPA1 functional antagonist assay). The following applies: PathHunter CHO-K1 EDG2 β-Arrestin cells, calcium indicator dye, stimulated with EC80 concentration of LPA, FLIPR. The class given is cell-based. As for the experimental part:
The effectiveness of compounds of the present invention as LPA1 inhibitors can be determined in an LPA1 functional antagonist assay as follows.
PathHunter® CHO-K1 EDG2 β-Arrestin Cell Line (Eurofins DiscoverX Corporation, Cat #93-0644C2) were plated overnight (11,500 cells/well) in poly-D-lysine coated 384-well microplates (Corning, Cat #356697) in AssayComplete™ Cell Plating 35 Reagent (Eurofins DiscoverX Corporation, Cat #93-0563R35). Following overnight culture, cells were loaded with calcium indicator dye from the HitHunter Calcium No WashPLUS Assay kit (Eurofins DiscoverX Corporation, Cat #93-0091) for 45 minutes at 37° C. Test compounds solubilized in DMSO (Sigma, Cat #276855) on 384-well polypropylene microplates (Greiner bio-one, Cat #781280) were then diluted to intermediate concentration with assay buffer [1×HBSS calcium/magnesium (Corning, Cat #21-023-CM) and 20 mM HEPES (Corning, Cat #25-060-Cl)] before addition to cells by Agilent Velocity 11 with a final concentration of 0.4% DMSO. After compound addition, assay plates were equilibrated to room temperature for 30 minutes. Cells were then stimulated by addition of EC80 concentration of LPA (Cat #, 10010093) in assay buffer containing [1×HBSS calcium/magnesium (Corning, Cat #21-023-CM), 20 mM HEPES (Corning, Cat #25-060-Cl), and 0.1% BSA (Sigma, Cat #A8806)] using Molecular Devices FLIPR Tetra PLUS®. IC50 values were determined by Chemical and Biological Information System from ChemInnovation Software, Inc.
The compounds of this invention were tested for their activity to inhibit LPA1 as determined in an LPA1 functional antagonist assay as described herein.

The record followed here is patent US20250230140A1 (Viva Star Biosciences (Suzhou) Co., Ltd., priority 2021, published 2025).

Each structure is given as a SMILES string. Some results are limits rather than exact numbers.

Usually IC50 stands for the concentration needed to halve the response being measured.

T1 sequence (Q92633 whole entry, the tested form may be a part): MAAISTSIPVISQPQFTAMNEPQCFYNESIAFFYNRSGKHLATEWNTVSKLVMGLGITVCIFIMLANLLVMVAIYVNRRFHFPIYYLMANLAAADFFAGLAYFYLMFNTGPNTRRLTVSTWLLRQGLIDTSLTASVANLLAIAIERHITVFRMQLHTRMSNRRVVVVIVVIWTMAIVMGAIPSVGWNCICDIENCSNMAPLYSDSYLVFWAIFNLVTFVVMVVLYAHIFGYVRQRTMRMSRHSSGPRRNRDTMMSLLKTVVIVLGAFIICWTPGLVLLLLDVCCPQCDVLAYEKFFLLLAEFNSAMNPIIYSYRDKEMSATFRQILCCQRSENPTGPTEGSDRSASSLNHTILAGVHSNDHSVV

In the case of `CCc1nc(-c2nnn(C)c2COc2nccc(C3CCC3)n2)ccc1N1CC[C@H](CC(=O)O)C1` [Example 4, (R)-2-(1-(6-(5-(((4-cyclobutylpyrimidin-2-yl)oxy)methyl)-1-methyl-1H-1,2,3-triazol-4-yl)-2-ethylpyridin-3-yl)pyrrolidin-3-yl)acetic acid], the IC50 lay in the range of 100 to 500 nM.
With `CCc1nc(-c2nnn(C)c2COc2nccc(C3CCC3)n2)ccc1N1CC[C@@H]([C@@H](C)C(=O)O)C1` [Example 8], the IC50 was < 100 nM.
Regarding `Cc1nc(-c2nnn(C)c2CN2CC(CC3CC3)N(C)C2=O)ccc1O[C@H]1CCC[C@H](C(=O)O)C1` (stereo partly drawn) [Example 42, (1S,3S)-3-((6-(5-((4-(cyclopropylmethyl)-3-methyl-2-oxoimidazolidin-1-yl)methyl)-1-methyl-1H-1,2,3-triazol-4-yl)-2-methylpyridin-3-yl)oxy)cyclohexane-1-carboxylic acid], the half-inhibitory concentration (IC50) was in the range of 100 to 500 nM.
As for `CCc1nc(-c2nnn(C)c2COc2nccc(C3CCC3)n2)ccc1[C@H]1CCC[C@H](CC(=O)O)O1` (single isomer, unassigned) [Example 23, 2-((2R,6R) or (2S,6S)-6-(6-(5-(((4-cyclobutylpyrimidin-2-yl)oxy)methyl)-1-methyl-1H-1,2,3-triazol-4-yl)-2-ethylpyridin-3-yl)tetrahydro-2H-pyran-2-yl)acetic acid], the IC50 lay in the range of 100 to 500 nM.
Under `CCCc1ccc(=O)n(Cc2c(-c3ccc(N4CC[C@@H](C(C)(C)C(=O)O)C4)c(CC)n3)nnn2C)c1` [Example 14] stands < 100 nM.
For `CCCc1ccc(=O)n(Cc2c(-c3ccc(C4CCOC(CC(=O)O)C4)c(CC)n3)nnn2C)c1` (centres unmarked) [Example 31, 2-(4-(2-ethyl-6-(1-methyl-5-((2-oxo-5-propylpyridin-1(2H)-yl)methyl)-1H-1,2,3-triazol-4-yl)pyridin-3-yl)tetrahydro-2H-pyran-2-yl)acetic acid], the IC50 lay in the range of 500 to 5000 nM.
Turning to `CCCc1ccc(=O)n(Cc2c(-c3ccc(N4CC[C@@H](C(CC)C(=O)O)C4)c(CC)n3)nnn2C)c1` (single isomer, unassigned) [Example 17, (S) or (R)-2-((S)-1-(2-ethyl-6-(1-methyl-5-((2-oxo-5-propylpyridin-1(2H)-yl)methyl)-1H-1,2,3-triazol-4-yl)pyridin-3-yl)pyrrolidin-3-yl)butanoic acid], the IC50 lay in the range of 500 to 5000 nM.
Regarding `CCc1nc(-c2nnn(C)c2COc2nccc(C3CCC3)n2)ccc1C1CCOC(CC(=O)O)C1` (centres unmarked) [Example 32, 2-(4-(6-(5-(((4-cyclobutylpyrimidin-2-yl)oxy)methyl)-1-methyl-1H-1,2,3-triazol-4-yl)-2-ethylpyridin-3-yl)tetrahydro-2H-pyran-2-yl)acetic acid], the IC50 is < 100 nM.
For `CCCc1ccc(=O)n(Cc2c(-c3ccc(C4CCCC(CC(=O)O)C4)c(C)n3)nnn2C)c1` (centres unmarked) [Example 38, 2-[3-(2-methyl-6-{1-methyl-5-[(2-oxo-5-propyl-1,2-dihydropyridin-1-yl)methyl]-1H-1,2,3-triazol-4-yl}pyridin-3-yl)cyclohexyl]acetic acid], the half-inhibitory concentration (IC50) lay within 100 to 500 nM.
Consider `CCCc1ccc(=O)n(Cc2c(-c3ccc([C@@H]4CCC[C@@H](CC(=O)O)O4)c(CC)n3)nnn2C)c1` (single isomer, unassigned) [Example 24, 2-((2S,6S) or (2R,6R)-6-(2-ethyl-6-(1-methyl-5-((2-oxo-5-propylpyridin-1(2H)-yl)methyl)-1H-1,2,3-triazol-4-yl)pyridin-3-yl)tetrahydro-2H-pyran-2-yl)acetic acid], for which the IC50 fell in the range of 500 to 5000 nM.
In the case of `CCc1nc(-c2nnn(C)c2COc2nccc(C3CCC3)n2)ccc1C1CCOC(CC(=O)O)C1` (single isomer, unassigned) [Example 35, 2-(4-(6-(5-(((4-cyclobutylpyrimidin-2-yl)oxy)methyl)-1-methyl-1H-1,2,3-triazol-4-yl)-2-ethylpyridin-3-yl)tetrahydro-2H-223,423-pyran-2-yl)acetic acid], the concentration for half-maximal inhibition (IC50) is < 100 nM.
